Records with an inconclusive call do not appear.
Test system: SR lymphoma cells viability, CellTiter-Glo ATP, 8-48 h
Test: cytotoxicity in SR immunoblastic lymphoma cells – cell-based, CellTiter-Glo ATP luminescence, 8-48 h, dry powder, mechanism study for HRAS target identification, late-stage follow-up (AID 720608)

Compound | AC50 (measured here: 8 h treatment) [nM] | AC50 (measured here: 24 h treatment) [nM] | AC50 (measured here: 48 h treatment) [nM]
COC(=O)c1ccc([C@@H]2c3[nH]c4ccccc4c3C[C@@H](C(=O)OC)N2C(=O)CCl)cc1 | 112 | 17.1 | 18.6
CC(C)(C)OC(=O)NCCOCCOCCOc1ccc(N(C(=O)CCl)C(C(=O)NCCc2ccccc2)c2cccs2)cc1Cl (stereo not given) | 265 | 61.1 | 53.1
Cc1onc(C(=O)N2CCN(C(c3ccc(Cl)cc3)c3ccc(Cl)cc3)CC2)c1[N+](=O)[O-] | 364 | 80.4 | 97.9
COc1ccc(N(C(=O)CCl)C(C(=O)NCCc2ccccc2)c2cccs2)cc1Cl (stereo not given) | 119 | 46.8 | 42.3
C#CCCCC(=O)NCCOCCOCCOc1ccc(N(C(=O)CCl)C(C(=O)NCCc2ccccc2)c2cccs2)cc1Cl (stereo not given) | 2430 | 406 | 703
